In publication PMC4699860 (Biophysical Journal, 2015):

Molecular target: K-Ras4B1-166-GDP (Homo sapiens, UniProt P01116)
Assay: Microscale thermophoresis
Assay type: binding
Conditions: MST; nucleotide state not given; pH 7.0, 0.05% TWEEN-20

interaction with K-Ras4B1-166 (in words): abolished the interaction
Substance: Ac-KEKLNSKPGKKKKKKSKTK-NH2 [kR-4B-28]
